In patent US10517889B2, “Modulators of SMAD7 expression” (Ionis Pharmaceuticals, Inc., priority 2017, dated 2019):
Strand notation (5' to 3'): a small letter for the sugar, then the base; units joined by * are phosphorothioate-linked, units joined directly phosphodiester-linked; [ ] holds rarer units or linkages, { } end groups; capitals alone tell only the bases. k = constrained ethyl (cEt); [5mC] = 5-methylcytosine; d = 2'-deoxy (DNA)

System: human SMAD7 mRNA
Assay: Antisense inhibition of human SMAD7 mRNA expression in Hep3B cells by 3-10-3 cEt gapmers, 10,000 nM, electroporation (Example 2)
Format: cell-based
Settings: Hep3B cells, electroporation with 10,000 nM antisense oligonucleotide, approximately 24 hours; for % Inhibition: SMAD7 mRNA by RT-PCR (RTS5062), relative to untreated control cells; for % inhibition of SMAD7 mRNA expression: primer probe set RTS5062, relative to untreated control cells
Outline: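 SMAD7 mRNA was measured by real-time PCR (RTS5062) with RiboGreen total-RNA normalization, about 24 h after 10,000 nM gapmer was delivered by electroporation into Hep3B cells at 20,000 per well. Gapmers were 16-mer 3-10-3 cEt, fully phosphorothioate; values are % inhibition versus untreated controls.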

799348 (kA*kT*kA*dA*dA*dA*dG*dG*dA*dA*dA*dG*dG*kA*kG*kT; antisense) [compound 799348]
% Inhibition: 21%

799349 (kA*kG*k[5mC]*dG*d[5mC]*dA*d[5mC]*dT*d[5mC]*dG*dG*dG*dA*kG*kA*kT; antisense) [compound 799349]
% Inhibition: 0%

799350 (kA*kT*kT*d[5mC]*d[5mC]*dT*dA*dG*d[5mC]*dG*d[5mC]*dA*d[5mC]*kT*k[5mC]*kG; antisense) [compound 799350]
% Inhibition: 31%

799351 (kT*kT*kT*dA*dG*d[5mC]*dT*dG*dT*d[5mC]*dA*dG*dA*kT*kA*kA; antisense) [compound 799351]
% Inhibition: 31%

799352 (kG*k[5mC]*kG*dG*dT*dG*dA*dT*dT*dG*d[5mC]*d[5mC]*dT*kT*kG*kA; antisense) [compound 799352]
% Inhibition: 24%

799353 (kT*k[5mC]*kT*dT*dT*dT*dA*dG*d[5mC]*d[5mC]*d[5mC]*dA*dA*k[5mC]*kT*kG; antisense) [compound 799353]
% Inhibition: 45%

799354 (kA*kT*k[5mC]*dT*dA*d[5mC]*dT*d[5mC]*dA*d[5mC]*d[5mC]*dA*dG*kT*kT*kG; antisense) [compound 799354]
% Inhibition: 0%

799355 (kA*kG*kG*dA*dA*dA*d[5mC]*d[5mC]*dT*dA*dG*dA*dA*k[5mC]*k[5mC]*kA; antisense) [compound 799355]
% Inhibition: 23%

799356 (kG*kA*kA*dA*dA*dA*dT*dT*d[5mC]*dA*d[5mC]*d[5mC]*dA*kA*kA*k[5mC]; antisense) [compound 799356]
% Inhibition: 23%

799357 (k[5mC]*kA*k[5mC]*dA*dA*d[5mC]*dA*dG*dA*dA*dA*dA*dA*kT*kT*k[5mC]; antisense) [compound 799357]
% Inhibition: 41%

799358 (kA*kG*k[5mC]*dA*d[5mC]*dA*dA*dA*dT*dA*d[5mC]*dA*dT*kG*kA*kA; antisense) [compound 799358]
% inhibition of SMAD7 mRNA expression: 52%

799359 (kT*kG*kT*dT*dA*dA*dA*dG*d[5mC]*dT*dG*dA*dG*k[5mC]*k[5mC]*k[5mC]; antisense) [compound 799359]
% inhibition of SMAD7 mRNA expression: 22%

799360 (k[5mC]*k[5mC]*kA*dA*dG*dA*d[5mC]*dA*d[5mC]*dT*dT*d[5mC]*dT*k[5mC]*kT*k[5mC]; antisense) [compound 799360]
% inhibition of SMAD7 mRNA expression: 42%

799361 (kG*kT*k[5mC]*d[5mC]*dT*dA*dT*dT*dT*dG*dG*dT*dT*k[5mC]*k[5mC]*k[5mC]; antisense) [compound 799361]
% inhibition of SMAD7 mRNA expression: 77%

799362 (k[5mC]*kA*kT*d[5mC]*dA*dA*d[5mC]*d[5mC]*dA*dG*dT*d[5mC]*d[5mC]*kT*kA*kT; antisense) [compound 799362]
% inhibition of SMAD7 mRNA expression: 39%

799363 (kG*kA*kG*dT*dT*dA*dT*d[5mC]*d[5mC]*d[5mC]*d[5mC]*dA*dT*k[5mC]*kA*kA; antisense) [compound 799363]
% inhibition of SMAD7 mRNA expression: 49%

799367 (antisense kA*kG*kT*d[5mC]*dT*d[5mC]*d[5mC]*dG*dA*dG*dT*dT*dA*kT*k[5mC]*k[5mC]) [compound 799367]
% Inhibition: 41%

799368 (antisense k[5mC]*kT*kA*dA*dG*dT*d[5mC]*dT*d[5mC]*d[5mC]*dG*dA*dG*kT*kT*kA) [compound 799368]
% Inhibition: 68%

799370 (antisense kG*kG*k[5mC]*dA*d[5mC]*dT*d[5mC]*dA*d[5mC]*dT*dA*dA*dG*kT*k[5mC]*kT) [compound 799370]
% Inhibition: 13%

799371 (antisense k[5mC]*k[5mC]*k[5mC]*dT*dT*dT*d[5mC]*d[5mC]*dA*dT*dT*dA*dT*kT*k[5mC]*k[5mC]) [compound 799371]
% Inhibition: 28%

799372 (antisense k[5mC]*k[5mC]*k[5mC]*dA*dT*d[5mC]*dT*dA*dT*d[5mC]*dG*dA*dA*kT*k[5mC]*kA) [compound 799372]
% Inhibition: 67%
